Experimental data: patent US20210269451A1, “PYRIDINYL HETEROCYCLYL COMPOUNDS FOR THE TREATMENT OF AUTOIMMUNE DISEASE” (Hoffmann-La Roche Inc., priority 2018, published 2021)

What follows are compounds tested against T1, human TLR7 (Homo sapiens, UniProt Q9NYK1) (assay: HEK293-Blue-hTLR-7 cells assay). Settings: HEK293-Blue-hTLR7 cells, R848 stimulation, 20 hrs, SEAP reporter; read-out: HEK/hTLR7 IC50.
T1 construct: host or cells: HEK293-Blue-hTLR-7 (HEK293)
T1 sequence (Q9NYK1 27-1049): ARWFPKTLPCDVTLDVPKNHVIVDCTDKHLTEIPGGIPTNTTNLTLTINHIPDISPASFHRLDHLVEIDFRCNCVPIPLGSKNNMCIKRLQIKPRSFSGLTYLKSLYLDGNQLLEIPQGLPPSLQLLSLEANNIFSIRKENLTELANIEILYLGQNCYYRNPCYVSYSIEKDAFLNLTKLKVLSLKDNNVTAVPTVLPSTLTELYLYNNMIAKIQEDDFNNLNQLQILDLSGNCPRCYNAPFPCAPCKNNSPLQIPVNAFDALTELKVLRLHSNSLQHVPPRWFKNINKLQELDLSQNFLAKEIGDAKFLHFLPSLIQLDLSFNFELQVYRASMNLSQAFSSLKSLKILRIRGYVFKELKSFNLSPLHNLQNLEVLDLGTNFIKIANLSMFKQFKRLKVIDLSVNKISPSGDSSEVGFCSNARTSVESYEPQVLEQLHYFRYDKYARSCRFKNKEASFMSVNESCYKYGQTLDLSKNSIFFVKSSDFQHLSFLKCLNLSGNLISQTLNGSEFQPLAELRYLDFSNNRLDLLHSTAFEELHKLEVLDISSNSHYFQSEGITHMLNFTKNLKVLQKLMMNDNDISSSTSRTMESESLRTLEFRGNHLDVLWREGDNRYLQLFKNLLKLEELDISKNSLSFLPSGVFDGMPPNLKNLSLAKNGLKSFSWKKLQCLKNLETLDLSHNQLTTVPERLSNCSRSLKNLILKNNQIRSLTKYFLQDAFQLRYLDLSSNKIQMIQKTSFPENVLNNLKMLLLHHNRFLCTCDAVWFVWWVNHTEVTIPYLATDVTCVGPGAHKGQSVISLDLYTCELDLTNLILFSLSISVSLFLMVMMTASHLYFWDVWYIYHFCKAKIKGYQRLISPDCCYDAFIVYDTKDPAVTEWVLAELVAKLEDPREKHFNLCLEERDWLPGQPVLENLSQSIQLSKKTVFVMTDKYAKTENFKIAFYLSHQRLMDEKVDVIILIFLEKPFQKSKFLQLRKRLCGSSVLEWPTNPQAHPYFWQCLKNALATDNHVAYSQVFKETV
Type: cell-based
Procedure: The following tests were carried out in order to determine the activity of the compounds of formula (I) and (Ia) in HEK293-Blue-hTLR-7/8/9 cells assay.
HEK293-Blue-hTLR-7 cells assay:
A stable HEK293-Blue-hTLR-7 cell line was purchased from InvivoGen (Cat. #: hkb-htlr7, San Diego, Calif., USA). These cells were originally designed for studying the stimulation of human TLR7 by monitoring the activation of NE-κB. A SEAP (secreted embryonic alkaline phosphatase) reporter gene was placed under the control of the IFN-β minimal promoter fused to five NE-κB and AP-1-binding sites. The SEAP was induced by activating NE-κB and AP-1 via stimulating HEK-Blue hTLR7 cells with TLR7 ligands. Therefore the reporter expression was declined by TLR7 antagonist under the stimulation of a ligand, such as R848 (Resiquimod), for incubation of 20 hrs. The cell culture supernatant SEAP reporter activity was determined using QUANTI-Blue™ kit (Cat. #: rep-qbl, Invivogen, San Diego, Ca, USA) at a wavelength of 640 nm, a detection medium that turns purple or blue in the presence of alkaline phosphatase.
HEK293-Blue-hTLR7 cells were incubated at a density of 250,000-450,000 cells/mL in a volume of 170 μL in a 96-well plate in Dulbecco's Modified Eagle's medium (DMEM) containing 4.5 g/L glucose, 50 U/mL penicillin, […], […], 2 mM L-glutamine, 10% (v/v) heat-inactivated fetal bovine serum with addition of 20 μL test compound in a serial dilution in the presence of final DMSO at 1% and 10 μL of 20 uM R848 in above DMEM, perform incubation under 37° C. in a CO2 incubator for 20 hrs. Then 20 μL of the supernatant from each well was incubated with 180 μL Quanti-blue substrate solution at 37° C. for 2 hrs and the absorbance was read at 620˜655 nm using a spectrophotometer. The signalling pathway that TLR7 activation leads to downstream NE-κB activation has been widely accepted, and therefore similar reporter assay was modified for evaluating TLR7 antagonist.
An IC50 of 229 nM was found for Cc1cc(N2CCC(NC[C@H]3CN(c4ccc(C#N)c5ncccc45)C[C@@H](C)O3)CC2)cc(CO)n1 [Example 23] in this work. An IC50 of less than 3 nM was found for C[C@@H]1CN(c2ccc(C#N)c3ncccc23)C[C@H](CN2CC3(C2)CN(c2ccnc(CO)c2)CCO3)O1 [Example 51] in this work. An IC50 of less than 3 nM was found for Cc1cc(N2CCOC3(CN(C[C@H]4CN(c5ccc(C#N)c6ncccc56)C[C@@H](C)O4)C3)C2)ccn1 [Example 16] in this work. An IC50 of 10 nM was found for Cc1cc(N2CCN(C[C@H]3CN(c4ccc(C#N)c5ncccc45)C[C@@H](C)O3)CC2)cc(CO)n1 [Example 50] in this work. An IC50 of less than 3 nM was found for Cc1cc(N2CCOC3(CN(C[C@H]4CN(c5ccc(C#N)c6ncccc56)C[C@@H](C)O4)C3)C2)cc(C)n1 [Example 14] in this work. An IC50 of 7 nM was found for Cc1cc(N2CCC23CN(C[C@H]2CN(c4ccc(C#N)c5ncccc45)C[C@@H](C)O2)C3)cc(C)n1 [Example 8] in this work. An IC50 of 13 nM was found for CNc1cc(N2CCN(C[C@H]3CN(c4ccc(C#N)c5ncccc45)C[C@@H](C)O3)CC2)cc(C)n1 [Example 42, 5-[(2R,6S)-2-methyl-6-[[4-[2-methyl-6-(methylamino)-4-pyridyl]piperazin-1-yl]methyl]morpholin-4-yl]quinoline-8-carbonitrile] in this work. An IC50 of 62 nM was found for C[C@@H]1CN(c2ccc(C#N)c3ncccc23)C[C@H](CN[C@@H]2CCCN(c3ccnc(N)c3)C2)O1 [Example 21, 5-[(2S,6R)-2-[[[(3R)-1-(2-amino-4-pyridyl)-3-piperidyl]amino]methyl]-6-methyl-morpholin-4-yl]quinoline-8-carbonitrile] in this work. An IC50 of 39 nM was found for C[C@@H]1CN(c2ccc(C#N)c3ncccc23)C[C@H](CN2CCN(c3cc(N)nc(CO)c3)CC2)O1 [Example 45, 5-[(2S,6R)-2-[[4-[2-amino-6-(hydroxymethyl)-4-pyridyl]piperazin-1-yl]methyl]-6-methyl-morpholin-4-yl]quinoline-8-carbonitrile] in this work. An IC50 of 65 nM was found for Cc1cc(N2CC(NC[C@H]3CN(c4ccc(C#N)c5ncccc45)C[C@@H](C)O3)C2)cc(CO)n1 [Example 30] in this work. An IC50 of 34 nM was found for Cc1cc(N2CCC[C@H](NC[C@H]3CN(c4ccc(C#N)c5ncccc45)C[C@@H](C)O3)C2)cc(CO)n1 [Example 25] in this work. An IC50 of 11 nM was found for Cc1cc(N2CCOC3CN(CC4CN(c5ccc(C#N)c6ncccc56)CC(C)O4)CC32)cc(C)n1 (single isomer, unassigned) [Example 17B] in this work. An IC50 of 35 nM was found for Cc1cc(N2CCC[C@H](N(C)C[C@H]3CN(c4ccc(C#N)c5ncccc45)C[C@@H](C)O3)C2)cc(CO)n1 [Example 38] in this work. An IC50 of less than 3 nM was found for Cc1cc(N2CCOC3CN(CC4CN(c5ccc(C#N)c6ncccc56)CC(C)O4)CC32)cc(C)n1 (single isomer, unassigned) [Example 17A] in this work. An IC50 of 16 nM was found for Cc1cc(N2CCC3(CN(C[C@H]4CN(c5ccc(C#N)c6ncccc56)C[C@@H](C)O4)C3)C2)cc(C)n1 [Example 9] in this work. An IC50 of 12 nM was found for Cc1cc(N2CC[C@@H](F)[C@H](NC[C@H]3CN(c4ccc(C#N)c5ncccc45)C[C@@H](C)O3)C2)cc(CO)n1 [Example 34] in this work. An IC50 of 7 nM was found for Cc1cc(N2CCC23CN(C[C@H]2CN(c4ccc(C#N)c5ncccc45)C[C@@H](C)O2)C3)ccn1 [Example 15] in this work. An IC50 of 12 nM was found for Cc1cc(N2CC[C@H](F)[C@H](NC[C@H]3CN(c4ccc(C#N)c5ncccc45)C[C@@H](C)O3)C2)cc(CO)n1 [Example 33] in this work. An IC50 of 55 nM was found for C[C@@H]1CN(c2ccc(C#N)c3ncccc23)C[C@H](CN2CC3(C2)CN(c2ccnc(C(C)(C)O)c2)C3)O1 [Example 48, 5-[(2S,6R)-2[[2-[2-(1-hydroxy-1-methyl-ethyl)-4-pyridyl]-2,6-diazaspiro[3.3]heptan-6-yl]methyl]-6-methyl-morpholin-4-yl]quinoline-8-carbonitrile] in this work. An IC50 of 28 nM was found for Cc1cc(N2CC3(CN(C[C@H]4CN(c5ccc(C#N)c6ncccc56)C[C@@H](C)O4)C3)C2)cc(CO)n1 [Example 1, 5-[(2S,6R)-2-[[2-[2-(hydroxymethyl)-6-methyl-4-pyridyl]-2,6-diazaspiro[3.3]heptan-6-yl]methyl]-6-methyl-morpholin-4-yl]quinoline-8-carbonitrile] in this work. An IC50 of 10 nM was found for Cc1cc(N2CCN(C[C@H]3CN(c4ccc(C#N)c5ncccc45)C[C@@H](C)O3)[C@H](C)C2)cc(CO)n1 [Example 4B] in this work. An IC50 of 44 nM was found for Cc1cc(NC2CCN(C[C@H]3CN(c4ccc(C#N)c5ncccc45)C[C@@H](C)O3)C2)cc(CO)n1 (some centres unmarked) [Example 6] in this work. An IC50 of 156 nM was found for Cc1cc(N2CC[C@H](NC[C@H]3CN(c4ccc(C#N)c5ncccc45)C[C@@H](C)O3)C2)cc(CO)n1 [Example 29] in this work. An IC50 of 13 nM was found for Cc1cc(N2CCC23CN(C[C@H]2CN(c4ccc(C#N)c5ncccc45)C[C@@H](C)O2)C3)cc(CO)n1 [Example 12] in this work. An IC50 of 8 nM was found for Cc1cc(N2CCN(C[C@H]3CN(c4ccc(C#N)c5ncccc45)C[C@@H](C)O3)CC2)cc(N)n1 [Example 40, 5-[(2S,6R)-2-[[4-(2-amino-6-methyl-4-pyridyl)piperazin-1-yl]methyl]-6-methyl-morpholin-4-yl]quinoline-8-carbonitrile] in this work. An IC50 of 26 nM was found for Cc1cc(N2CCC[C@@H](NC[C@H]3CN(c4ccc(C#N)c5ncccc45)C[C@@H](C)O3)C2)cc(CO)n1 [Example 24] in this work. An IC50 of 32 nM was found for CC(O)c1cc(N2CC3(CN(C[C@H]4CN(c5ccc(C#N)c6ncccc56)C[C@@H](C)O4)C3)C2)ccn1 (stereo partly drawn) [Example 46, 5-[(2S,6R)-2-[[2-[2-(1-hydroxyethyl)-4-pyridyl]-2,6-diazaspiro[3.3]heptan-6-yl]methyl]-6-methyl-morpholin-4-yl]quinoline-8-carbonitrile] in this work. An IC50 of 57 nM was found for Cc1cc(N2C[C@H]3CN(C[C@H]4CN(c5ccc(C#N)c6ncccc56)C[C@@H](C)O4)C[C@H]3C2)cc(CO)n1 [Example 10] in this work. An IC50 of 34 nM was found for Cc1cc(N2CC(N(C)C[C@H]3CN(c4ccc(C#N)c5ncccc45)C[C@@H](C)O3)C2)cc(CO)n1 [Example 37] in this work. An IC50 of 20 nM was found for Cc1cc(N2CC3(CN(C[C@H]4CN(c5ccc(C#N)c6ncccc56)C[C@@H](C)O4)C3)C2)cc(C(C)O)n1 (stereo partly drawn) [Example 44, 5-[(2S,6R)-2-[[2-[2-(1-hydroxyethyl)-6-methyl-4-pyridyl]-2,6-diazaspiro[3.3]heptan-6-yl]methyl]-6-methyl-morpholin-4-yl]quinoline-8-carbonitrile] in this work. An IC50 of 37 nM was found for C[C@@H]1CN(c2ccc(C#N)c3ncccc23)C[C@H](CN[C@H]2CCCN(c3ccnc(N)c3)C2)O1 [Example 22] in this work. An IC50 of 13 nM was found for C[C@@H]1CN(c2ccc(C#N)c3ncccc23)C[C@H](CN2CC3(C2)CN(c2ccnc(C4CC4)c2)C3)O1 [Example 49, 5-[(2S,6R)-2[[2-(2-cyclopropyl-4-pyridyl)-2,6-diazaspiro[3.3]heptan-6-yl]methyl]-6-methyl-morpholin-4-yl]quinoline-8-carbonitrile] in this work. An IC50 of 9 nM was found for Cc1cc(N2CCN(C[C@H]3CN(c4ccc(C#N)c5ncccc45)C[C@@H](C)O3)[C@@H](C)C2)cc(CO)n1 [Example 4A] in this work. An IC50 of 8 nM was found for Cc1cc(N(C)C2CN(C[C@H]3CN(c4ccc(C#N)c5ncccc45)C[C@@H](C)O3)C2)cc(C)n1 [Example 11] in this work. An IC50 of 17 nM was found for Cc1cc(N2CCC[C@@H](N(C)C[C@H]3CN(c4ccc(C#N)c5ncccc45)C[C@@H](C)O3)C2)cc(CO)n1 [Example 35] in this work.
